Patent publication US8557770B2, “Method of preventing or reducing scarring of human skin” (Pharmecosse Ltd., priority 2000, dated 2013)

Tests used:
[1] = test system: fibroblast cultures from hypertrophic scars (HTS); assay: In vitro myofibroblast differentiation assay (α-smooth muscle actin staining), hypertrophic scar fibroblasts; type: cell-based, human
Source text: (§1) One of the most important cell types in both normal and pathological scar formation is the myofibroblast. These cells, which differentiate from the unwounded tissue cell type (fibroblasts), are responsible for laying down scar tissue. Indeed myofibroblasts remain present in hypertrophic scars up to four years after the original wounding event. An in vitro assay was accordingly developed to identify actives which prevent or reduce myofibroblast formation and thus identify actives which are effective in reducing and/or preventing scar tissue formation.
(§2) Fibroblast cultures were initiated from normal skin, normal scars, hypertrophic scars (HTS) and burns scars.
(§3) Each culture was split into seven parts (A to G) and grown in the following different growth media:
(§4) (A) was grown in normal growth medium (hereinafter referred to as NGM) which consisted of Dulbecco's modified Eagles Medium (DMEM) plus 10% Foetal Calf Serum (FCS);
(§5) (B) was grown in growth factor depleted medium (hereinafter referred to as GF depleted) which is NGM that is depleted of active polypeptide growth factors including TGFP. It is prepared by treating FCS with a reducing agent in order to attack and cleave the disulphide bonds that determine the conformation and thus the biological activity of the polypeptide growth factors;
(§6) (D) (D1-D4) were grown in growth factor depleted medium plus 1 ng/ml-100 ng/ml of insulin-like Growth Factor-I) (IGF-I) (hereinafter referred to as GF depleted+IGF-I); (E) (E1-E3) were grown in growth factor depleted medium plus 50 ng/ml-[…] of insulin-like Growth Factor II (IGF-II) (hereinafter referred to as GF depleted+IGFII); (F) (F1F3) were grown in growth factor depleted medium plus 25 ng/ml to 100 ng/ml of basic fibroblast growth factor (bFGF) (hereinafter referred to as GF depleted and bFGF); […]
(§7) The fibroblasts were grown in these media (which was replenished twice weekly) for fourteen days, fixed and stained immunohistochemically using an antibody specific for α-smooth muscle actin (a marker of myofibroblasts). […] The number of these was counted, as was the total number of cells present, and the proportion of myofibroblasts was then calculated. In this manner, the number of myofibroblasts present in each culture was determined as a percentage of the total number of cells in the culture population.
(§8) Fibroblast cultures were initiated from normal scars (NS) and hypertrophic scars (HTS). […] The number of myofibroblasts was calculated as a percentage of the total cell population and the results are shown in FIGS. 1 and 2 of the drawings.
(§9) Fibroblasts cultures were initiated from normal and hypertrophic scars. […] The number of myofibroblasts were counted and calculated as a percentage of the total cells present.

[2] = test system: fibroblast cultures from burns scars; assay: In vitro myofibroblast differentiation assay (α-smooth muscle actin staining), burns scar fibroblasts; type: cell-based, human; settings: 14 days
Source text: as §1, §2, §3, §4, §5
(D) (D1-D4) were grown in growth factor depleted medium plus 1 ng/ml-100 ng/ml of insulin-like Growth Factor-I) (IGF-I) (hereinafter referred to as GF depleted+IGF-I); (E) (E1-E3) were grown in growth factor depleted medium plus 50 ng/ml-[…] of insulin-like Growth Factor II (IGF-II) (hereinafter referred to as GF depleted+IGFII); (F) (F1F3) were grown in growth factor depleted medium plus 25 ng/ml to 100 ng/ml of basic fibroblast growth factor (bFGF) (hereinafter referred to as GF depleted and bFGF);
(G) (G1-G3) were grown in growth factor depleted medium plus 25 ng/ml to 100 ng/ml of platelet derived growth factor (PDGF) (hereinafter referred to as GF depleted+PDGF).
The fibroblasts were grown in these media (which was replenished twice weekly) for fourteen days, fixed and stained immunohistochemically using an antibody specific for α-smooth muscle actin (a marker of myofibroblasts). The stain caused α-smooth muscle actin to fluoresce green and accordingly cells that had stained green were identified as myofibroblasts. The number of these was counted, as was the total number of cells present, and the proportion of myofibroblasts was then calculated. In this manner, the number of myofibroblasts present in each culture was determined as a percentage of the total number of cells in the culture population.

murine incisional scars = settings: 1 dose of insulin (Day 0), harvested after 14 days, n=4
Experimental: Scars were wrapped in saline soaked swabs and transported immediately to the laboratory for testing. Each scar was dissected into 2 equal strips (perpendicular to the line of the scar), each of which was measured using a Nikon Shadowmeter. The strip of tissue was mounted on the tensiometer, with the scar mounted at 6 mm from the jaws of the clamps. Traction was applied across the scar at a constant rate of 10 mm/minute, and the force required for disruption of the scar measured. Stress values were calculated by normalising load values to cross-sectional area of each specimen and are given in units of MPa.

[3] = test system: dermal fibroblast cell lines; assay: Myofibroblast number in dermal fibroblast cell lines in GFD medium with PPAR agonist; type: cell-based, human; settings: 1 IU/ml insulin alone, 14 days
Source text: Dermal fibroblast cell lines were derived from 3 patients and seeded individually onto sterile coverslips. […] Medium was refreshed twice weekly and cultures were harvested for immunohistochemical staining for α-smooth muscle actin after 14 days. The number of myofibroblasts was counted and calculated as a percentage of the total cells present, and since the ability of each cell line to differentiate into myofibroblasts varied extensively, the results were normalised as follows. Results are expressed as the mean percentage reduction in myofibroblast number for each treatment as compared to the proportion of myofibroblasts identified in GFD medium alone for that cell line. The error bars represent plus or minus one standard deviation.

[4] = test system: fibroblast cultures from normal skin; assay: In vitro myofibroblast differentiation assay (α-smooth muscle actin staining), normal skin fibroblasts; type: cell-based, human; settings: GF depleted medium + 5 μg/ml, 14 days
Source text: as §1, §2
Each culture was split into seven parts (A to G) and grown in the following different growth media: […]
as §7

[5] = test system: fibroblast cultures from normal scars; assay: In vitro myofibroblast differentiation assay (α-smooth muscle actin staining), normal scar fibroblasts; type: cell-based, human
Source text: as §1, §2, §3, §4, §5, §6, §7, §8, §9

[6] = test system: murine incisional wounds (myofibroblasts); assay: Murine incisional wound healing model, α-smooth muscle actin staining score; type: in vivo, male BALB/c mice
Source text: After general anesthesia, both posterior flanks on male BALB/c mice were shaved and cleaned with chlorhexidine in spirit. Two 1.5 cm wounds were marked (one in each flank) parallel to the spine with permanent marker. Full thickness incisions were made along these marks down to the level of the chest wall. Both lateral skin flaps were dissected from the underlying chest wall and the wound assessed from hemorrhage. The wound edges were then infiltrated with test substance or vehicle only control, as appropriate, by injection into the wound edges. Insulatard® was diluted in normal saline (0.9%) to give a final test solution of 1 IU/ml. 0.15 ml of this test solution (0.15 IU) was applied to one of the test wounds and saline alone was applied to the contralateral wound on the same animal. Wounds were closed with interrupted 5/0 Prolene® suture. Mice were recovered from the anesthetic individually and housed in groups of 4. […]
The wounds were analysed in the following manner: The comparison of the actual severity of scarring is impossible in this and all other animal models, since in contrast to human wounds, animal wounds are rapidly closed by way of swift epidermal contraction leaving minimal areas of scarring in any case. We therefore attempted to judge the efficacy of insulin in vivo on its ability to affect the number of myofibroblasts present using immunohistochemical staining methods for the myofibroblast marker, α smooth muscle actin. To allow semi-quantitative analysis of the resulting staining, a visual grading system was developed. Scars were assessed and allocated a score depending on the intensity of alpha smooth muscle actin staining within each section. […] Each scar was assessed at a number (minimum of 3) points along its length and the intensity was scored and averaged for each section to allow comparisons between treatments. Two independent assessors assessed the scoring blindly. The number of wounds assessed for each experimental group was 8. […]

Question: Which results are given for “Insulin: polypeptide hormone; in vivo and Example 9 tests used Insulatard diluted in saline”?
Answer: Number of myofibroblasts - percentage of total cell population ([1]; HTS fibroblasts, GF depleted medium + 5 μg/ml, 14 days): 3.23 percentage of total cell popul; Effect on induction of myofibroblast differentiation by active TGFβ1 ([1]; hypertrophic scar fibroblasts, NGM plus 5 μg/ml insulin plus 0.5 ng/ml TGFβ1, 5 days): no effect on the rapid induction of myofibroblast differentiation; Number of myofibroblasts - percentage of total cell population ([2]; GF depleted medium + 10 ng/ml): 16.44 percentage of total cell popul; Number of myofibroblasts - percentage of total cell population ([2]; GF depleted medium + 100 ng/ml): 15.91 percentage of total cell popul; Number of myofibroblasts - percentage of total cell population ([2]; GF depleted medium + 5 μg/ml): 8.20 percentage of total cell popul; Median wound breaking strength (murine incisional scars): 1.62 MPa; Mean percentage reduction in myofibroblast number compared to GFD medium alone [3]: 76.6%; Number of myofibroblasts - percentage of total cell population [4]: 5.26 percentage of total cell popul; Number of myofibroblasts - percentage of total cell population ([5]; GF depleted medium + 5 μg/ml, 14 days): 6.14 percentage of total cell popul; Effect on induction of myofibroblast differentiation by active TGFβ1 ([5]; NGM plus 5 μg/ml insulin plus 0.5 ng/ml TGFβ1, 5 days): no effect on the rapid induction of myofibroblast differentiation; Mean score of α-smooth muscle actin staining (out of maximum of 3) ([6]; 0.15 IU Insulatard injected into wound edges, day 14, 8 wounds): 0.486; Myofibroblast score ([6]; single dose 0.15 IU on day 0, day 14 after wounding (FIG. 4)): dropping down to normal; Maximum myofibroblast score ([6]; single dose 0.15 IU on day 0, maximum reached over first 7 days (FIG. 4)): 1.92
